Patent US20100273189A1, “NON SEPARATION ASSAYS WITH SELECTIVE SIGNAL INHIBITORS” (BECKMAN COULTER, INC., priority 2009, published 2010)

Tests used:
Type in all cases: biochemical
cTnI [1] = assay: cTnI detection via heterogeneous assay
Protocol: This example describes a method of detecting cTnI (Cardiac Troponin I) using an AK-Abl particle prepared e.g., as set forth in Example 3 and a HRP-Ab2 conjugate prepared e.g., as set forth in Example 4 where Ab2 represents an antibody to cTnI. The effect of ascorbic acid on background signal was investigated.
HRP-Ab2 conjugate suspensions were prepared at 1.0 μg/mL and contained either 0 or 1 mM ascorbic acid. Samples consisted of human serum samples with the indicated mounts of cTnI added or no cTnI as a control. The test procedure consisted of adding 20 μL of 1.0 μg/mL HRP-Ab2 conjugate and 30 μL of MES buffer containing 1 mg/mL BSA and 1 mg/mL MIgG, pH 5.9 to the reaction vessel. Next, 25 μL of patient serum sample was added, followed by 25 μL of 1.0 mg/mL AK-Abl conjugate suspension thereby obtaining 100 μL of total volume in the reaction vessel. After 15.2 minutes, 100 μL of trigger solution A was added to the reaction vessel and the light intensity was recorded on the modified DxI instrument. Chemiluminescence intensity is expressed in Relative Light Units (RLU).

PSA = assay: Effect of trigger pH: PSA on LodeStar particles with ascorbate
Protocol: B. In order to determine the effect of trigger solution pH on a variety of test assay systems, a series of experiments were conducted varying trigger pH. […] In the tables, two pH values are listed for each data set. The first is the pH of the buffer sample added to the reaction mixture. The second is the resulting pH of the final reaction mix.

cTnI [2] = assay: cTnI assay with various magnetic particles, without and with ascorbic acid 150 μM
Text: The effectiveness of ascorbic acid in improving assay performance in microparticle formats was investigated using a cTnI analyte with various magnetic particles. Magnetic particles evaluated included LodeStars PMP, latex PMP and carboxylate-modified polystyrene latex PMP. “Lot B Magnetic Particle” are 6.2 μm diameter carboxyl PMPs (Bangs Laboratories, Fishers, Ind.). “Lot D Magnetic Particle” are 8.1 μm diameter carboxyl PMPs (Bangs Laboratories). “Lot F Latex Particle” are 3.1 μm diameter carboxyl PMPs (Seradyn Products, Thermo-Fisher, Indianapolis, Ind.). “CML PMP” are […] diameter carboxylate modified latex particles (Invitrogen, Carlsbad, Calif.). LodeStars PMP were labeled with AK4 and biotin by EDC coupling and overcoated with streptavidin following the general protocol of Example 3. Lots B, D, and F and CML PMP were labeled with AK-BSA-biotin according to Example 1. The particles were then coated with streptavidin and bound to biotin-labeled anti-cTnI.
In an initial experiment, the cTnI assay was conducted without ascorbic acid in the reaction mix.
In this case, LodeStars particles retain much more specific signal than the other particle types, even while the background decreases almost […].

[3] = with ascorbic acid, S1, cTnI 172 pg/mL
[4] = with ascorbic acid, S2, cTnI 366 pg/mL
[5] = with ascorbic acid, S3, cTnI 1368 pg/mL
[6] = with ascorbic acid, S4, cTnI 11136 pg/mL
[7] = with ascorbic acid, S5, cTnI 27922 pg/mL
[8] = with ascorbic acid, S6, cTnI 106000 pg/mL
[9] = Control (7.7), S1, PSA 400 pg/ml
[10] = Control (7.7), S2, PSA 1400 pg/ml
[11] = Control (7.7), S3, PSA 7000 pg/ml
[12] = Control (7.7), S4, PSA 51000 pg/ml
[13] = Control (7.7), S5, PSA 101600 pg/ml
[14] = pH 6.0 (6.2), S1, PSA 400 pg/ml
[15] = pH 6.0 (6.2), S2, PSA 1400 pg/ml
[16] = pH 6.0 (6.2), S3, PSA 7000 pg/ml
[17] = pH 6.0 (6.2), S4, PSA 51000 pg/ml
[18] = pH 6.0 (6.2), S5, PSA 101600 pg/ml
[19] = pH 7.0 (7.4), S1, PSA 400 pg/ml
[20] = pH 7.0 (7.4), S2, PSA 1400 pg/ml
[21] = pH 7.0 (7.4), S3, PSA 7000 pg/ml
[22] = pH 7.0 (7.4), S4, PSA 51000 pg/ml
[23] = pH 7.0 (7.4), S5, PSA 101600 pg/ml
[24] = pH 8.0 (7.9), S1, PSA 400 pg/ml
[25] = pH 8.0 (7.9), S2, PSA 1400 pg/ml
[26] = pH 8.0 (7.9), S3, PSA 7000 pg/ml
[27] = pH 8.0 (7.9), S4, PSA 51000 pg/ml
[28] = pH 8.0 (7.9), S5, PSA 101600 pg/ml
[29] = pH 9.0 (8.4), S1, PSA 400 pg/ml
[30] = pH 9.0 (8.4), S2, PSA 1400 pg/ml
[31] = pH 9.0 (8.4), S3, PSA 7000 pg/ml
[32] = pH 9.0 (8.4), S4, PSA 51000 pg/ml
[33] = pH 9.0 (8.4), S5, PSA 101600 pg/ml

## O=C1O[C@H]([C@@H](O)CO)C(O)=C1O [Ascorbic Acid, Ascorbic acid]
cTnI [1]; in the presence of ascorbic acid, in words
  background signal: significant reduction in background signal
cTnI [1]; second column pair (with 1 mM ascorbic acid in conjugate), S0, cTnI 0 pg/mL
  RLU: 422 RLU
cTnI [1]; [3]
  RLU: 1320 RLU
  S/S0: 3.1
cTnI [1]; [4]
  RLU: 2778 RLU
  S/S0: 6.6
cTnI [1]; [5]
  RLU: 10254 RLU
  S/S0: 24.3
cTnI [1]; [6]
  RLU: 108628 RLU
  S/S0: 257.4
cTnI [1]; [7]
  RLU: 325082 RLU
  S/S0: 770.3
cTnI [1]; [8]
  RLU: 2380772 RLU
  S/S0: 5641.6
PSA; Control (7.7), S0, PSA 0 pg/ml
  Mean RLU: 8,192 RLU
PSA; [9]
  Mean RLU: 91,301 RLU
  S/S0: 11.1
PSA; [10]
  Mean RLU: 403,035 RLU
  S/S0: 49.2
PSA; [11]
  Mean RLU: 2,803,433 RLU
  S/S0: 342.2
PSA; [12]
  Mean RLU: 10,490,375 RLU
  S/S0: 1280.6
PSA; [13]
  Mean RLU: 10,598,780 RLU
  S/S0: 1293.8
PSA; pH 6.0 (6.2), S0, PSA 0 pg/ml
  Mean RLU: 3,301 RLU
PSA; [14]
  Mean RLU: 34,485 RLU
  S/S0: 10.4
PSA; [15]
  Mean RLU: 114,219 RLU
  S/S0: 34.6
PSA; [16]
  Mean RLU: 786,859 RLU
  S/S0: 238.3
PSA; [17]
  Mean RLU: 3,198,045 RLU
  S/S0: 968.7
PSA; [18]
  Mean RLU: 3,728,345 RLU
  S/S0: 1129.3
PSA; pH 7.0 (7.4), S0, PSA 0 pg/ml
  Mean RLU: 7,704 RLU
PSA; [19]
  Mean RLU: 87,221 RLU
  S/S0: 11.3
PSA; [20]
  Mean RLU: 333,253 RLU
  S/S0: 43.3
PSA; [21]
  Mean RLU: 2,640,633 RLU
  S/S0: 342.8
PSA; [22]
  Mean RLU: 9,524,603 RLU
  S/S0: 1236.3
PSA; [23]
  Mean RLU: 10,001,948 RLU
  S/S0: 1298.3
PSA; pH 8.0 (7.9), S0, PSA 0 pg/ml
  Mean RLU: 9,345 RLU
PSA; [24]
  Mean RLU: 96,427 RLU
  S/S0: 10.3
PSA; [25]
  Mean RLU: 429,327 RLU
  S/S0: 45.9
PSA; [26]
  Mean RLU: 3,433,037 RLU
  S/S0: 367.4
PSA; [27]
  Mean RLU: 11,497,652 RLU
  S/S0: 1230.3
PSA; [28]
  Mean RLU: 11,461,215 RLU
  S/S0: 1226.4
PSA; pH 9.0 (8.4), S0, PSA 0 pg/ml
  Mean RLU: 5,821 RLU
PSA; [29]
  Mean RLU: 73,801 RLU
  S/S0: 12.7
PSA; [30]
  Mean RLU: 315,528 RLU
  S/S0: 54.2
PSA; [31]
  Mean RLU: 2,592,673 RLU
  S/S0: 445.4
PSA; [32]
  Mean RLU: 11,443,659 RLU
  S/S0: 1965.8
PSA; [33]
  Mean RLU: 11,479,280 RLU
  S/S0: 1971.9
cTnI [2]; ascorbic acid 150 μM prior to addition of trigger, LodeStars particles
  background decrease: ~300%
cTnI [2]; ascorbic acid in the assay reaction mixture, in words
  assay sensitivity: significantly improves the assay sensitivity
